According to PMC6368337, “GluClR-mediated inhibitory postsynaptic currents reveal targets for ivermectin and potential mechanisms of ivermectin resistance” (PLoS Pathogens, 2019):

Assays:
α (avr-14b) GluClRs = α (avr-14b) GluClRs (Haemonchus contortus, UniProt O46124); test: Two-electrode voltage clamp in oocytes, α GluClRs; assay type: cell-based, H. contortus
Procedure: (§1) cDNAs encoding the α (avr-14b) (pcDNA 3.1+) or β (pUNIV) GluClR subunits of H. contortus were nuclear injected into oocytes (NASCO, WI USA) or transfected into HEK293AD cells (CellBank Australia) using a calcium phosphate-DNA co-precipitate method. Synapse formation between neurons and HEK293 cells was promoted by co-transfecting neuroligin 2A or 1B and the cDNA encoding CD4 surface antigen was also added to the transfection mixture so as to identify transfected cells. The oocytes and HEK cells were used for experiments 2–3 days after the introduction of the cDNAs. All experiments were done at room temperature (22 ± 1°C).
(§2) Xenopus laevis oocytes were harvested by surgical incision. The oocytes were then defolliculated with 1.5 mg/ml collagenase for 2 hours. Free oocytes were rinsed with calcium-free OR-2 solution containing (in mM) 82.5 NaCl, 2 KCl, 1 MgCl2, 5 HEPES, pH 7.4 and mature stage V or VI oocytes were isolated for experiments. The DNAs coding for α and β subunits were nuclear injected into the oocytes using a Nanoliter 2000 microinjector (WPI Inc) at a ratio of (α:β), 1:0, 0:1, 1:1 and 1:50. The total amount of injected DNA in all combinations was 400 ng ml^−1, including the 1:50 (α:β) combination (8 ng of DNA encoding the α and 392 ng of DNA encoding β subunits). Injected oocytes were incubated in ND96 storage solution (in mM) 96 NaCl, 2 KCl, 1 MgCl2.6H2O, 1.8 CaCl2, 5 HEPES, 50 μg ml^−1 gentamicin, 2.5 sodium pyruvate, 0.5 theophylline, pH 7.4 at 16°C for 2–3 days before experiment.
(§3) For the two-electrode voltage clamp recordings, each oocyte was secured in a cell bath that was continually perfused with ND96 recording solution (ND96 storage solution without pyruvate, theophylline and gentamicin). […] The two microelectrodes contained 3 M KCl and had resistances of 0.2–2 MΩ. Recordings were done using Clampex 10.2 software (Molecular Devices) at a clamped voltage of −40 mV. Currents were low-pass filtered at 200 Hz, sampled at 2 kHz using a Gene Clamp 500B amplifier and digitised by a Digidata 1440A interface. The IVM (IVM B1a) concentration-response experiments were standardised by using an application protocol that consisted of applying increasing concentrations of IVM for, respectively, 3 min, 3 min, 3 min, 2 min, 1 min, 1 min and 0.5 min.
(§4) Group data were analysed in SigmaPlot 13.0 using one-way ANOVAs, where p < 0.05 was taken as the significance threshold and expressed as mean ± SEM. Tests for normally distributed data are built into the SigmaPlot software. Confocal images were captured and analysed with Zen 2012 SP2 (Zeiss) software. Oocyte concentration-response data were fit to a Hill equation to obtain an EC50 and Hill co-efficient for each oocyte recording. These parameters were then averaged across multiple oocyte experiments of the same type. Single channel recordings were analysed in QuB software. […] The selected critical times eliminated periods of receptor desensitisation while retaining singe receptor active periods. Mean active period duration and intra-activation open probability was estimated from each patch. Group means were obtained by averaging across multiple patches for each recording condition.

αβ (1:1) GluClRs [1] = biological target: T1, αβ (1:1) GluClRs (Haemonchus contortus, UniProt O46124+P91730); test: Two-electrode voltage clamp in oocytes, αβ (1:1) GluClRs; assay type: cell-based, H. contortus; conditions: glutamate-gated current, oocytes, 1:1
Procedure: as §1, §2, §3
Group data were analysed in SigmaPlot 13.0 using one-way ANOVAs, where p < 0.05 was taken as the significance threshold and expressed as mean ± SEM. Tests for normally distributed data are built into the SigmaPlot software. Confocal images were captured and analysed with Zen 2012 SP2 (Zeiss) software. Oocyte concentration-response data were fit to a Hill equation to obtain an EC50 and Hill co-efficient for each oocyte recording. […] Single channel recordings were analysed in QuB software. […]

αβ (1:50) GluClRs = αβ (1:50) GluClRs (Haemonchus contortus, UniProt O46124+P91730); test: Two-electrode voltage clamp in oocytes, αβ (1:50) GluClRs; assay type: cell-based, H. contortus
Procedure: as §1, §2, §3, §4

β GluClRs [2] = biological target: T2, β GluClRs (Haemonchus contortus, UniProt P91730); test: Two-electrode voltage clamp in oocytes, β GluClRs; assay type: cell-based, H. contortus; conditions: glutamate-gated current, oocytes
Procedure: as §1
Xenopus laevis oocytes were harvested by surgical incision. The oocytes were then defolliculated with 1.5 mg/ml collagenase for 2 hours. Free oocytes were rinsed with calcium-free OR-2 solution containing (in mM) 82.5 NaCl, 2 KCl, 1 MgCl2, 5 HEPES, pH 7.4 and mature stage V or VI oocytes were isolated for experiments. The DNAs coding for α and β subunits were nuclear injected into the oocytes using a Nanoliter 2000 microinjector (WPI Inc) at a ratio of (α:β), 1:0, 0:1, 1:1 and 1:50. […]
Group data were analysed in SigmaPlot 13.0 using one-way ANOVAs, where p < 0.05 was taken as the significance threshold and expressed as mean ± SEM. […] Confocal images were captured and analysed with Zen 2012 SP2 (Zeiss) software. […] Single channel recordings were analysed in QuB software. […]

αβ (1:1) GluClRs [3] = biological target: T1, αβ (1:1) GluClRs; test: Single channel recording, outside-out patches, αβ (1:1) GluClRs; assay type: cell-based, H. contortus; conditions: for mean active period duration: −70 mV
Excerpt: (§5) To explore whether a similar mechanism applies to β-containing GluClRs, we recorded single receptor currents in excised patches from cells transfected with either the α and β subunits (1:1) or the β subunit alone. […] By contrast, patches from cells transfected with the β subunit alone invariably opened to an amplitude of 0.4 pA (Fig 6C). Amplitude histograms confirmed two amplitude levels for αβ GluClRs and a single amplitude for the β GluClRs (Fig 6D). […] We infer that the αβ GluClRs that open to 0.7 pA likely contain a greater proportion of β subunits. This is consistent with β GluClRs having the smallest amplitude and α GluClRs having the greatest amplitude (1.8 pA) under similar recording conditions. The calculated conductance values for the corresponding amplitudes for αβ GluClRs was 15.2 pS and 8.9 pS and for the β GluClRs was 5.1 pS.
(§6) Single-channel currents were recorded from outside-out excised patches at a clamped potential of −70 mV. The single channel conductance was calculated by dividing the mean current by the net driving force at a clamped potential of ‐70 mV, after accounting for reversal and liquid junction potentials. Excised patches were continuously perfused via a gravity-fed double-barrelled glass tube, which contained extracellular bath solution containing (in mM), 140 NaCl, 5 KCl, 1 MgCl2, 2 CaCl2, 10 HEPES, and 10 D-glucose and titrated to pH 7.4. Glutamate and IVM were dissolved in this extracellular solution. Recording electrodes were pulled from borosilicate glass (G150F-3; Warner Instruments), coated with a silicone elastomer (Sylgard-184; Dow Corning) and heat-polished to a final tip resistance of 4–15 MΩ when filled with an intracellular solution containing (in mM) 145 CsCl, 2 MgCl2, 2 CaCl2, 10 HEPES, and 5 EGTA, pH 7.4. […] A 10 mM stock of IVM (Sigma-Aldrich) was dissolved in 100% DMSO and kept frozen at ‐20°C. Fresh working stocks of IVM at 5 nM were prepared by dissolving the appropriate quantity directly in extracellular solution. 100% DMSO when dissolved in extracellular solution alone at the same concentration as was present in working solutions containing 5 nM IVM had no effect on patches excised from cells transfected with GluClRs or from untransfected cells.
(§7) Currents were recorded using an Axopatch 200B amplifier (Molecular Devices), filtered at 5 kHz and digitized at 20 kHz using Clampex (pClamp 10 suite, Molecular Devices) via a Digidata 1440A digitizer.
(§8) Group data were analysed in SigmaPlot 13.0 using one-way ANOVAs, where p < 0.05 was taken as the significance threshold and expressed as mean ± SEM. Tests for normally distributed data are built into the SigmaPlot software. Confocal images were captured and analysed with Zen 2012 SP2 (Zeiss) software. Oocyte concentration-response data were fit to a Hill equation to obtain an EC50 and Hill co-efficient for each oocyte recording. These parameters were then averaged across multiple oocyte experiments of the same type. Single channel recordings were analysed in QuB software. […] Patches yielded between 30–250 individual active periods. […] The selected critical times eliminated periods of receptor desensitisation while retaining singe receptor active periods. Mean active period duration and intra-activation open probability was estimated from each patch. Group means were obtained by averaging across multiple patches for each recording condition.

β GluClRs [4] = biological target: T2, β GluClRs; test: Single channel recording, outside-out patches, β GluClRs; assay type: cell-based, H. contortus
Excerpt: as §5, §6, §7, §8

[5] = tested on: Untransfected HEK293 cells; test: Membrane partitioning, time-lapse fluorescence
Procedure: Two types of experiments were conducted with IVM-bdpy. The first was aimed at monitoring the time-course of membrane accumulation. Untransfected HEK293 cells were incubated in extracellular solution containing 500 nM IVM-bdpy and time-lapse images were taken over a period of 30 min (Fig 8A). The change in total membrane fluorescence averaged from 5 repeat experiments was then plotted against time and fitted to a standard exponential function (Fig 8B). In a control experiment, the corresponding accumulation rate was also determined for bdpy. To obtain the net membrane partitioning time-course for IVM-1, the data for the bdpy alone was subtracted from the data obtained for IVM-bdpy (Fig 8B). The time constants for the three plots were 6.5 min for the IVM-bdpy, 8.2 min for the bdpy fluorophore and 6.0 min for IVM-1. As the lipophilic properties of IVM and IVM-1 are similar (logPs of 5.4 and 5.1, respectively), we infer this analysis quantitatively reflects the membrane partitioning properties of IVM. […] It should be noted, however, that the IVM-bdpy experiment was done using a 100-fold higher concentration of drug in un-transfected cells and represents passive membrane accumulation, whereas the current plateau involved IVM binding to and activating receptors.
Membrane partitioning and FRAP experiments were performed on an LSM 710 inverted 2-photon confocal microscope equipped with a 40X water immersion objective lens (1.2 NA/280 μM WD/0.208 μM/pixel and a GFP/Alexa 488 filter set. Untransfected HEK293 cells at a confluency of 50–75% were plated onto 35-mm glass bottom dishes one day prior to experiments. The IVM-bdpy fluorophore was dissolved in 100% DMSO and stored at ‐20°C at a concentration of 24 mM.
A Mai Tai eHP 2-photon laser/760-1040 nm was used as an excitation source (power at 920 nm) for the FRAP experiments. The laser and bleaching power were set to 7% and 75% respectively. Membrane partitioning images were taken for 35 min at 0.5 Hz after replacing the cell medium (extracellular solution) with one containing the IVM-bdpy probe at a concentration of 500 nM. FRAP images were taken at a frequency of 0.5 Hz for 10 min after a 30 min equilibration period in 500 nM IVM-bdpy.

Lipophilicity (logP) = assay type: physicochemical

T1 sequence (P91730 19-432): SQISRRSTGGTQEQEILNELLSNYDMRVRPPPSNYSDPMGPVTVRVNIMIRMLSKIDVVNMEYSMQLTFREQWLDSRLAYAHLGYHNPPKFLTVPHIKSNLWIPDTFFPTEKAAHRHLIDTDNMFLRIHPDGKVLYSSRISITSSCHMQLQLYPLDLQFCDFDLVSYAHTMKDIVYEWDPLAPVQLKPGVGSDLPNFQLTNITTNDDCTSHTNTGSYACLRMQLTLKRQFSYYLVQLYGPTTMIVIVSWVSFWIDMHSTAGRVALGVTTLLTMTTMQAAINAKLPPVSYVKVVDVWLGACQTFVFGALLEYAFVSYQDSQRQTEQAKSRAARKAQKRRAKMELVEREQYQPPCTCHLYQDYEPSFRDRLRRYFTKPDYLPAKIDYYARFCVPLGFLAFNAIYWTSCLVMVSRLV
T1 sequence (O46124 entry or part of it): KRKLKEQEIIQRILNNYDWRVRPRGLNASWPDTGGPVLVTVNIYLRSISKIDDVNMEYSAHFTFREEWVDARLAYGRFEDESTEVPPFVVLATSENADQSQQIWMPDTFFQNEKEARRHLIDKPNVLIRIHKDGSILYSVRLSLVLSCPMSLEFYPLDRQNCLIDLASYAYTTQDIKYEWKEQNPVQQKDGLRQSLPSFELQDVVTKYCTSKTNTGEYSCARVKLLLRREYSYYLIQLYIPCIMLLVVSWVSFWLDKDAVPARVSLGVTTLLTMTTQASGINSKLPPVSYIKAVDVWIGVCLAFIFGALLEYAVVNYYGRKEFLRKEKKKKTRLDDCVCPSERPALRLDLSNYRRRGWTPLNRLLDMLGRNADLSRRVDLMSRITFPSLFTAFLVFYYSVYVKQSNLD
T2 sequence (P91730 19-432): as the sequence (P91730 19-432) above
Sequence of αβ (1:50) GluClRs (O46124 entry or part of it): as the sequence (O46124 entry or part of it) above
Sequence of αβ (1:50) GluClRs (P91730 19-432): as the sequence (P91730 19-432) above
Sequence of α (avr-14b) GluClRs (O46124 entry or part of it): as the sequence (O46124 entry or part of it) above

| SMILES | maximal current (α (avr-14b) GluClRs; glutamate-gated current, oocytes) [μA] | maximal current (αβ (1:1) GluClRs [1]) [μA] | maximal current (αβ (1:50) GluClRs; glutamate-gated current, oocytes, 1:50) [μA] | maximal current (β GluClRs [2]) [μA] | intra-activation open probability (PO) (αβ (1:1) GluClRs [3]; 2 μM glutamate) | mean active period duration (αβ (1:1) GluClRs [3]; 2 μM glutamate, both stoichiometries pooled) [ms] | intra-activation open probability (PO) (αβ (1:1) GluClRs [3]; 3 mM glutamate) | mean active period duration (αβ (1:1) GluClRs [3]; 3 mM glutamate, pooled) [ms] | intra-activation open probability (PO) (β GluClRs [4]; 2 μM glutamate) | mean active period duration (β GluClRs [4]; 2 μM glutamate, −70 mV) [ms] | intra-activation open probability (PO) (β GluClRs [4]; 3 mM glutamate) | mean active period duration (β GluClRs [4]; 3 mM glutamate) [ms] | efficacy (maximal current normalised to saturating glutamate) compared to IVM (α (avr-14b) GluClRs; 30 nM, normalised to 5 mM glutamate) | efficacy (maximal current normalised to saturating glutamate) compared to IVM (αβ (1:50) GluClRs; 30 nM, normalised to 5 mM glutamate, αβ 1:50) | differential efficacy between α and αβ (1:50) GluClRs (αβ (1:50) GluClRs; 30 nM, α versus αβ (1:50)) | net membrane partitioning time constant ([5]; bdpy data subtracted from IVM-bdpy data) [min] | time to plateau of membrane partitioning ([5]; subtraction plot (IVM-bdpy minus bdpy)) [min] | logP (Lipophilicity (logP)) |
| --- | --- | --- | --- | --- | --- | --- | --- | --- | --- | --- | --- | --- | --- | --- | --- | --- | --- | --- |
| N[C@@H](CCC(=O)O)C(=O)O [Glutamate, L-glutamate] | 3.7 ± 0.8 | 2.0 ± 0.4 | 2.2 ± 0.4 | 1.9 ± 0.3 | 0.54 ± 0.06 | 40 ± 10 | 0.83 ± 0.03 | 146 ± 15 | 0.63 ± 0.07 | 7.5 ± 1.8 | 0.70 ± 0.11 | 164 ± 31 | – | – | – | – | – | – |
| CC[C@H](C)[C@H]1O[C@]2(CC[C@@H]1C)C[C@@H]1C[C@@H](C/C=C(\C)[C@@H](O)[C@@H](C)/C=C/C=C3\CO[C@@H]4[C@H](O)C(C)=C[C@@H](C(=O)O1)[C@]34O)O2 [IVM-1] | – | – | – | – | – | – | – | – | – | – | – | – | significantly less efficacious than IVM | preservation of efficacy | retained differential efficacy | 6.0 | 18 to 20 | 5.1 |
